{"source": "patent US9303076B2", "about": "“Cell-penetrating peptides and uses thereof” (Hoffmann-La Roche Inc., priority 2010, dated 2016)", "key": {"[1]": {"tested_on": "MCF-7 human breast cancer cells", "assay": "cell viability/apoptosis after 24 h exposure to pro-apoptotic peptides and CPP fusions", "type": "cell-based", "conditions": "MCF-7 cells; for cell viability / induction of apoptosis: various concentrations; for cell viability / cytotoxicity due to induction of apoptosis: 20 μM", "method": "(§1) MCF-7 human breast cancer cells were incubated for 24 h in the presence of various concentrations of NRTN (squares), Nur (circles), and NurNRTN (triangles) peptides. The respective amino acid sequences are given in the bottom panel. The experimental approach for assessing cell viability (and thus induction of apoptosis) was the same as in FIG. 3.\nas §1, with “4E-BP1 (circles), TAT4E-BP1” for “NRTN”, “(squares),” for “(squares), Nur (circles),”, “NRTN4E-BP1” for “NurNRTN”, “peptides (top panel). […]” for “peptides.”\nLuminescence was analyzed in an InfiniteF200 luminescence reader.\nThen, the cells were treated with a luminogenic peptide substrate in order to measure dead-cell protease activity, which is released from cells that have lost membrane integrity. […] The luminescence of this assay therefore represents dead cells. The 96 well plates were then analyzed in an InfiniteF200 luminescence reader.\nDespite its proven ability to convert BCL-2 into a pro-apoptotic molecule, addition of the latter peptide (i.e. “Nor/Nur”; SEQ ID NO: 72) to cancer cells, even in high concentrations, is not sufficient to induce apoptosis, as the cellular target protein is located in the cytoplasm, but the peptide per se cannot effectively penetrate through the cell membrane to reach the target. In brief, MCF-7 breast cancer cells were incubated in the presence of this peptide for 24 h.\n(§2) Subsequently, it was evaluated whether the NurNRTN fusion peptide is capable of penetrating cellular membranes and thereby induces pro-apoptotic activity within cells. MCF-7 human breast cancer cells were used as a model. The experimental approach was as described above (cf. Example 1). […] This effect was dose dependent: cytotoxicity increased with increasing concentrations of peptide.\nas §2, with “NRTN4E-BP1” for “NurNRTN”"}, "human Aha1 mRNA": {"tested_on": "human Aha1 mRNA", "assay": "siRNA transfection screening (siAha1 vs siGL3 control, bDNA assay of Aha1/GAPDH mRNA)", "type": "cell-based", "method": "For the quantification of cellular mRNA levels bDNA (branched DNA) assays were performed which enable the detection of individual mRNA levels. To this end, a defined number of the cells to be analyzed was seeded into 96-well plates and allowed to attach over night. On the next day, the cells were transfected with siRNA.\nAfter further 24 hours, the mRNA species were quantified using the QuantiGene Plex 2.0 assay kit according to the manufacturers instructions (Affymetrix Inc., Santa Clara, Calif., USA). In brief, cell lysates were transferred to a capture plate in the presence of a gene-specific probe set and incubated at 53° C. over night. After washing, the wells were sequentially incubated at 53° C. with an amplifier agent and an alkaline phosphatase (AP)-linked label probe with a washing step in between. Subsequently, the luminescent AP substrate dioxitane was added and incubated for 30 min at 53° C. Luminescence was assayed using an InfiniteF200 luminescence reader (Tecan Austria GmbH, Groding, Austria).\nIn order to analyze the potential CPPs for their ability to transfect siRNA into mammalian cells an increasing peptide concentration (from 1 μM to 20 μM) was employed along with a constant siRNA concentration (100 nM). This range of peptide concentrations was used as it had been shown that positively charged peptides such as TAT are internalized into cells in ranges up to 10 μM and remain in intracellular membrane compartments without significant egress into the cytosol (Duchardt, F. et al. (2007) Traffic 8, 848-866). […] A concentration of 10 nM siRNA is in the saturation range as determined in control experiments using the DharmaFECT transfection reagent (Dharmacon, Inc., Lafayette, Colo., USA; data not shown).\nThe siRNA oligonucleotides employed were directed against human Aha1 mRNA (Panaretou, B. et al. (2002) Mol. Cell 10, 1307-1318) or against luciferase mRNA as a control.\nComplexes of siRNA and the respective peptides were formed in OptiMEM medium and incubated for 15 minutes at room temperature. The cells were incubated in the presence of the complexes for three hours in OptiMEM. After washing, the cells were incubated for further 21 or 45 hours in normal growth medium. Thereafter, the levels of Aha1 mRNA and a reference mRNA (i.e. GAPDH mRNA) were measured by means of a bDNA assay. These assays were performed with cells that were transfected with siAHA1 and with a control siRNA (siGL3, luciferase), respectively.\nAs a measure for specific RNAi, the reduction of Aha1 mRNA levels relative to GAPDH mRNA levels was compared in siAHA1-transfected cells and siGL3-transfected cells. Specific siRNA mediated transfection causes a reduction in Aha1/GAPDH mRNA values in siAhA1-compared to siGL3-transfected cells. FIG. 3 depicts the screening readout of these assays: the Aha1/GAPDH mRNA values of non-transfected control cells were set to 100% (for each assay), and the Aha1/GAPDH mRNA values of siAha1- or siGL3-transfected cells were expressed relative to that. For this normalized data set, the differences between the respective Aha1/GAPDH mRNA levels of siAha1- and siGL3-transfected cells were determined. Specific peptides caused a significant reduction in siAha1 transfection without reducing siGL3 transfections, which results in positive difference values. The more pronounced these values are, the more specific RNAi is observed (cf. FIG. 3)."}, "siRNA duplex": {"tested_on": "siRNA duplex", "assay": "gel-shift assay of peptide/siRNA complex formation", "type": "binding", "conditions": "ethidium bromide staining", "method": "Gel-shift assays were performed by mixing […] siRNA duplex with the respective peptides in a given molar ratio in water. The complexes were formed for 1 hour at 37° C. and analyzed on a 2.5% agarose gel with ethidium bromide (run: 40 minutes at 125 V). For proteinase K treatment, 1 μl proteinase K was added to a standard reaction as indicated above.\nMechanisms that may explain transfection functionalities of charged peptides such as TAT or protamine include the formation of complexes between positively charged peptides and negatively charged nucleic acids. Such complexes enable peptide-mediated membrane-interacting and/or endosome escape functionalities to transfer the complexed nucleic acids into the cytosol of cells (Law, M. et al. (2008) Biotechnol. Prog. 24, 957-963) In order to address whether the above mechanism may apply to the NTRN-derived peptide as well gel-shift assays were performed (cf. FIG. 8). To this end, siRNA was co-incubated with increasing concentrations of peptide, followed by analyses of their migration pattern via gel electrophoresis."}, "MCF7 cells [2]": {"tested_on": "MCF7 cells", "assay": "FACS analysis of internalization of FITC-labeled peptides", "type": "cell-based, human", "conditions": "FITC-labeled peptide 1, 5, 10 μM; 3 hours at 37° C.; proteinase K treated", "method": "For FACS analysis, MCF7 cells (ATCC number HTB-22) were detached by 15 min incubation in accutase (an enzyme solution having proteolytic and collagenolytic activities; commercially available from various suppliers). After washing in FACS buffer (PBS containing 5% FCS), the cells were seeded in a 96 well, rounded bottom multi-well plate (Cat. No. 3799, Corning Inc., Corning, N.Y. USA) in a final density of 3×10^5 cells/ml and used immediately. The cells were incubated in the respective presence of 1 μM, 5 μM and 10 μM FITC-labeled peptides in OptiMEM medium for 3 hours at 37° C. Afterwards, the cells were washed in FACS buffer and incubated in proteinase K (0.02 mg/ml) containing buffer for 30 minutes at 37° C. The cells were washed twice and analyzed with the FACSCanto II (BD Biosciences; San Jose, Calif., USA) using the FITC channel.\nFor determining the internalization behavior of the CPPs identified in the screening procedures FITC-labeled derivates of said peptides (at 1 μM, 5 μM, and 10 μM, respectively) were analyzed by means of FACS. The following peptides were used: NRTN as a transfecting peptide, WNT16 as a non-transfecting peptide, FALL as a toxic peptide and TAT as a reference (positive control) (cf. FIG. 12). MCF7 cells were incubated in the presence of the fluorescent peptide derivatives for 3 hours at 37° C. in OptiMEM. Subsequently, the cells were treated with proteinase K for 30 minutes at 37° C. to remove surface bound peptides, and thus to ensure the monitoring only of internalized peptides. The cells were then washed in PBS and analyzed by FACS."}, "MCF7 cells [3]": {"tested_on": "MCF7 cells", "assay": "growth inhibition/toxicity (CellTiter-Glo viability, GAPDH mRNA levels)", "conditions": "MCF7 cells; peptide 1 μM to 20 μM", "procedure": "MCF7 cells were seeded at a density of 15.000 cells per well in 96 well plates. The cells were incubated for 24 hours at 37° C., 5% CO2 and 85% humidity in RPMI 1640 medium supplemented with 10% FCS (fetal calf serum) and L-glutamine. For functional assays, the cells were washed in OptiMEM medium and RPMI 1640 was replaced with OptiMEM (all reagents were purchased from Invitrogen Corporation, Carlsbad, Calif., USA). Complexes of siRNAs and peptides were formed by incubation of 100 nM siRNA with the indicated peptide concentrations in OptiMEM for 30 minutes at room temperature. The complexes were added to the cells and incubated for 3 hours. Subsequently, OptiMEM was replaced with normal RPMI 1640 growth medium. The cells were incubated for further 21 hours for generating bDNA lysates, and for further 45 hours for performing CellTiter-Glo or CytoTox-Glo assays (cf. below).\nIn order to measure the number of living cells the CellTiter-Glo Luminescent Cell Viability Assay (Promega Corporation, Madison, Wis., USA) was used according to the protocol of the manufacturer. The cells were incubated for 48 hours in the presence of peptides and siRNAs. Subsequently, the cells are lysed, and a luminescent signal proportional to the amount of ATP present is generated which, in turn, is proportional to the number of living cells present. Luminescence was analyzed in an InfiniteF200 luminescence reader.\nBased on this observation, GAPDH mRNA levels were used as a general readout for toxicity: an average measurement of 100% GAPDH mRNA relative to the medium control was considered as non-toxic, values between 99% and 70% as moderate toxic, and values of less than 70% as toxic (cf. FIG. 3).\nSimilarly, peptides resulting in GAPDH mRNA values >70% were classified as “nontoxic”, whereas peptides that caused a reduction of GAPDH mRNA to lesser values were termed “toxic”."}}, "data": [{"compound": "GAAEAAARVYDLGLRRLRQRRRLRRERVRAGTRIIGDGKFGMECRNSPVT (inactive NRTN4E-BP1 peptide sequence) [NRTNinact4E-BP1]", "values": [{"measurement": "cell viability / induction of apoptosis", "setting": "[1]", "result": "inactive"}]}, {"compound": "FSRSLHSLLVDL (C-terminal Nor1 peptide sequence; listed as Homo sapiens) [Nor/Nur, reference compound]", "values": [{"measurement": "cell viability / induction of apoptosis", "setting": "[1]", "result": "No reduction in cell viability or induction of apoptosis was observed"}]}, {"compound": "GAAEAAARVYDLGLRRLRQRRRLRRERVRAGTRIIYDRKFLMECRNSPVT [NRTN4E-BP1]", "values": [{"measurement": "potency compared to TAT-fused counterpart", "setting": "[1]", "result": "significantly higher potency"}, {"measurement": "cell viability / induction of apoptosis", "setting": "[1]", "result": "remarked cytotoxicity"}]}, {"compound": "CC[C@H](C)[C@H](NC(=O)[C@H](CCCNC(=N)N)NC(=O)[C@@H](NC(=O)CNC(=O)[C@H](CCCNC(=N)N)NC(=O)[C@H](CCCNC(=N)N)NC(=O)[C@H](CCCNC(=N)N)NC(=O)[C@H](CCC(N)=O)NC(=O)[C@H](CCCNC(=N)N)NC(=O)[C@H](CCCNC(=N)N)NC(=O)[C@H](CCCCN)NC(=O)[C@H](CCCCN)NC(=O)[C@H](CCCNC(=N)N)NC(=O)CNC(=O)[C@H](Cc1ccc(O)cc1)NC(=O)CCOCCOCCOCCNC(=O)[C@@H](N)CS)[C@@H](C)O)C(=O)N[C@H](C(=O)NCC(=O)N[C@@H](CC(=O)O)C(=O)NCC(=O)N[C@@H](CCCCN)C(=O)N[C@@H](Cc1ccccc1)C(=O)NCC(=O)N[C@@H](CCSC)C(=O)N[C@@H](CCC(=O)O)C(=O)N[C@@H](CS)C(=O)N[C@@H](CCCNC(=N)N)C(=O)N[C@@H](CC(N)=O)C(=O)N[C@@H](CO)C(=O)N1CCC[C@H]1C(=O)N[C@H](C(=O)N[C@H](C(=O)O)[C@@H](C)O)C(C)C)[C@@H](C)CC", "note": "[TATinact4E-BP1, reference compound]", "values": [{"measurement": "cell viability / cytotoxicity due to induction of apoptosis", "setting": "[1]", "result": "completely inactive"}]}, {"compound": "GRKKRRQRRRPPQ (Human immunodeficiency virus 1; TAT peptide sequence) [reference compound]", "values": [{"measurement": "difference of Aha1/GAPDH for luciferase siRNA and Aha1/GAPDH for Aha1 siRNA (Transfection)", "setting": "human Aha1 mRNA; 20 μM, threshold value of FIG. 3", "result": 18, "unit": "%"}, {"measurement": "complex formation with siRNA", "setting": "siRNA duplex", "result": "forms complexes with the siRNA molecules"}]}, {"compound": "CC[C@H](C)[C@H](NC(=O)[C@H](CCCNC(=N)N)NC(=O)[C@@H](NC(=O)CNC(=O)[C@H](CCCNC(=N)N)NC(=O)[C@H](CCCNC(=N)N)NC(=O)[C@H](CCCNC(=N)N)NC(=O)[C@H](CCC(N)=O)NC(=O)[C@H](CCCNC(=N)N)NC(=O)[C@H](CCCNC(=N)N)NC(=O)[C@H](CCCCN)NC(=O)[C@H](CCCCN)NC(=O)[C@H](CCCNC(=N)N)NC(=O)CNC(=O)[C@H](Cc1ccc(O)cc1)NC(=O)CCOCCOCCOCCNC(=O)[C@@H](N)CS)[C@@H](C)O)C(=O)N[C@H](C(=O)N[C@@H](Cc1ccc(O)cc1)C(=O)N[C@@H](CC(=O)O)C(=O)N[C@@H](CCCNC(=N)N)C(=O)N[C@@H](CCCCN)C(=O)N[C@@H](Cc1ccccc1)C(=O)N[C@@H](CC(C)C)C(=O)N[C@@H](CCSC)C(=O)N[C@@H](CCC(=O)O)C(=O)N[C@@H](CS)C(=O)N[C@@H](CCCNC(=N)N)C(=O)N[C@@H](CC(N)=O)C(=O)N[C@@H](CO)C(=O)N1CCC[C@H]1C(=O)N[C@H](C(=O)N[C@H](C(=O)O)[C@@H](C)O)C(C)C)[C@@H](C)CC", "note": "[TAT4E-BP1, reference compound]", "values": [{"measurement": "cell viability / cytotoxicity due to induction of apoptosis", "setting": "[1]", "result": "clear evidence for reduction in cell viability and cytotoxicity"}]}, {"compound": "FALLGDFFRKSKEKIGKEFKRIVQRIKDFLRNLVPRTES (FALL39 Var.1 peptide sequence; listed as Homo sapiens)", "values": [{"measurement": "specific reduction of Aha1 mRNA at lower concentrations", "setting": "human Aha1 mRNA; 5 μM peptide", "result": "clear and specific reduction of Aha1 mRNA"}, {"measurement": "specific Aha1 mRNA reduction (relative to GAPDH mRNA) where toxicity is pronounced", "setting": "human Aha1 mRNA; 10 μM or higher", "result": "only inconclusive evidence for a specific Aha1 mRNA reduction"}, {"measurement": "transfection efficacy compared with TAT / control peptides", "setting": "human Aha1 mRNA; NRTN: at lower non-toxic concentrations", "result": "inferior transfection efficacy than TAT"}, {"measurement": "internalization into cells (FACS, FITC channel)", "setting": "MCF7 cells [2]", "result": "strong accumulation"}, {"measurement": "cell viability / growth inhibition / toxicity (CellTiter-Glo, GAPDH mRNA levels)", "setting": "MCF7 cells [3]", "result": "significant toxicity"}]}, {"compound": "GTRIIYDRKFLMECRNSPVT [4E-BP1, reference compound]", "values": [{"measurement": "cell viability / induction of apoptosis", "setting": "[1]", "result": "No reduction in cell viability or induction of apoptosis was observed"}]}, {"compound": "PROK2: candidate peptide displaying the highest similarity with TAT (LTRKNNFGNGRQERRKRKRSKRKKEVPFFG; PROK2 peptide sequence; listed as Homo sapiens)", "values": [{"measurement": "siRNA transfection activity (specific Aha1 mRNA reduction relative to GAPDH mRNA)", "setting": "human Aha1 mRNA; MCF7 cells, 100 nM siRNA, peptide 1 μM to 20 μM", "result": "did not show detectable transfection activity"}]}]}
